Laboratory results as given in patent US20200390783A1, “INHIBITORS OF EGFR AND METHODS OF USE THEREOF” (DANA-FARBER CANCER INSTITUTE, INC., priority 2018, published 2020).
Like-named read-outs stand apart in the source and are kept apart here.

Molecular target: EGFR T790M/L858R Ba/F3 cell line (Homo sapiens, UniProt P00533, T790M/L858R, cells depend on it)
Test: Ba/F3 cell proliferation model (MTS assay)
Assay type: cell-based, murine
Procedure: The EGFR mutant L858R, Del E746_A750, L858R/T790M, DeE746_A750/T790M, L858R/T790M/C797S and Del/T790M/C797S Ba/F3 cells were previously described (Zhou et al., Nature 462, (2009), 1070-1074). All cell lines were maintained in RPMI 1640 (Cellgro; Mediatech Inc., Herndon, Calif.) supplemented with 10% FBS 100 units/mL penicillin, 100 units/mL streptomycin, and 2 mM glutamine. L858R cells were maintained in ACL-4 media (Invitrogen, Carlsbad, Calif.) supplemented with 5% FBS, 100 units/mL penicillin, 100 units/mL streptomycin, and 2 mM glutamine. The EGFR I941R mutation was introduced via site directed mutagenesis using the Quick Change Site-Directed Mutagenesis kit (Stratagene; La Jolla, Calif.) according to the manufacturer's instructions. All constructs were confirmed by DNA sequencing. The constructs were shuttled into the retroviral vector JP1540 using the BD Creator™ System (BD Biosciences). Ba/F3 cells were infected with retrovirus and according to standard protocols, as described previously (Zhou 2009). Stable clones were obtained by selection in puromycin (2 μg/ml).
Growth and inhibition of growth was assessed by MTS assay and was performed according to previously established methods (Zhou 2009). The MTS assay is a colorimetric method for determining the number of viable cells that is based on the bioreduction of MTS by cells to a formazan product that is soluble in cell culture medium and can be detected spectrophotometrically. […] All experimental points were set up in six wells and all experiments were repeated at least three times. […] The curves were fitted using a non-linear regression model with a sigmoidal dose response.

[1] = absence of cetuximab, read-out: Ba/F3 cellular activity (EC50) T790M/L858R
[2] = read-out: Ba/F3 cellular activity (EC50) T790M/L858R + Cetuximab, presence of 1 μg/mL cetuximab

EGFR T790M/L858R Ba/F3 cell line, sequence (P00533 whole entry T790M/L858R): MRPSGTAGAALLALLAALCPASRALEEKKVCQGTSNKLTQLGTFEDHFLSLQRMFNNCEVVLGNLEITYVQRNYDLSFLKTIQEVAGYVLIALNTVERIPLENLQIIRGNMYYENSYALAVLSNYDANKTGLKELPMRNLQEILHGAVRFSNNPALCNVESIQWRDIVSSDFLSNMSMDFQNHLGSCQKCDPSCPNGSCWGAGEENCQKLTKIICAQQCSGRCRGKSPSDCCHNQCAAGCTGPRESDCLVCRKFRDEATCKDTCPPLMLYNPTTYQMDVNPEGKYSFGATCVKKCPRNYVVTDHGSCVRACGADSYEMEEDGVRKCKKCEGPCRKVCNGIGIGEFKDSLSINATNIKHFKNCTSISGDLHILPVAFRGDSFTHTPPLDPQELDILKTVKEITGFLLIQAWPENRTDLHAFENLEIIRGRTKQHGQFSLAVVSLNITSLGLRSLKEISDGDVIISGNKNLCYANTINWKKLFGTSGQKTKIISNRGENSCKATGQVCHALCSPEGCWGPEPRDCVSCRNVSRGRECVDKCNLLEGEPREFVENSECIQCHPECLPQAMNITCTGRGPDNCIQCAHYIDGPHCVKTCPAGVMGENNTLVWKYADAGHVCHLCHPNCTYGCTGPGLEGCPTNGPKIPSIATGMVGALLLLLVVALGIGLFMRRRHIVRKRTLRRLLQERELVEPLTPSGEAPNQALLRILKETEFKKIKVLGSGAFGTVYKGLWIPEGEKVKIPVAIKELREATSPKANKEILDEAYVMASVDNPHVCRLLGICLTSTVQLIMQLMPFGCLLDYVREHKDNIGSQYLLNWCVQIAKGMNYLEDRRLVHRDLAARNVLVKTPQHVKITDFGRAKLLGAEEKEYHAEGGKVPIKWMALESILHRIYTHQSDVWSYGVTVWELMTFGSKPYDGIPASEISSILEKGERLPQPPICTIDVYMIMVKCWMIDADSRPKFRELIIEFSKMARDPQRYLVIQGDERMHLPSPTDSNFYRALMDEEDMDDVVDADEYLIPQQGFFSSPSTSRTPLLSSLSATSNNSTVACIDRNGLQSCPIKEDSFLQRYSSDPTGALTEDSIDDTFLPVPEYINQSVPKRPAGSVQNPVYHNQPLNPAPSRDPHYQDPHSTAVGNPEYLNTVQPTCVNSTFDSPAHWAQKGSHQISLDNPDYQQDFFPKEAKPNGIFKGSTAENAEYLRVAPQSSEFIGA

Which results are given for `C=CC(=O)Nc1ccc2c(c1)N(Cc1ccccc1)C(=O)c1cc(-c3ccc(N4CCNCC4)cc3)ccc1N2` [Compound I-3, N-(10-Benzyl-11-oxo-2-(4-(piperazin-1-yl)phenyl)-10,11-dihydro-5H-dibenzo[b,e][1,4]diazepin-8-yl)acrylamide]?
EC50 [1]: ≥ 750 nM; EC50 [2]: ≥ 750 nM

Which EC50 [1] does the source give for `O=C(CCl)Nc1ccc2c(c1)N(Cc1ccccc1)C(=O)c1cc(-c3ccc4[nH]ccc4c3)ccc1N2` [Compound I-2] here?
Its EC50 is < 250 nM.

And the EC50 [2]?
Its EC50 is < 250 nM.

Which results are given for `O=C1c2cc(Br)ccc2Nc2ccc(F)cc2N1Cc1ccccc1` [I-a, 10-Benzyl-2-bromo-8-fluoro-5,10-dihydro-11H-dibenzo[b,e][1,4]diazepin-11-one]?
EC50 [1]: ≥ 750 nM; EC50 [2]: 250 to 500 nM

What does the source list for `C=CC(=O)Nc1ccc2c(c1)N(Cc1ccccc1)C(=O)c1cc(-c3ccc4[nH]ccc4c3)ccc1N2` [Compound I-1]?
EC50 [1]: ≥ 750 nM; EC50 [2]: 500 to 750 nM
